Experimental data: US11306092B2, “Amino indole compounds useful as TLR inhibitors” (BRISTOL-MYERS SQUIBB COMPANY, priority 2017, dated 2022)
pIC50: −log10 of the molar value.

Tests used:
human TLR9 = target: T1, human TLR9 (Homo sapiens, UniProt Q9NR96); test: TLR9 inhibition reporter assay (HEK-Blue SEAP reporter); assay type: cell-based; conditions: HEK-Blue cells overexpressing human TLR9; ODN2006 5 nM; 22 hour incubation
T1 construct: host or cells: HEK-Blue cells
T1 sequence (Q9NR96 26-1032): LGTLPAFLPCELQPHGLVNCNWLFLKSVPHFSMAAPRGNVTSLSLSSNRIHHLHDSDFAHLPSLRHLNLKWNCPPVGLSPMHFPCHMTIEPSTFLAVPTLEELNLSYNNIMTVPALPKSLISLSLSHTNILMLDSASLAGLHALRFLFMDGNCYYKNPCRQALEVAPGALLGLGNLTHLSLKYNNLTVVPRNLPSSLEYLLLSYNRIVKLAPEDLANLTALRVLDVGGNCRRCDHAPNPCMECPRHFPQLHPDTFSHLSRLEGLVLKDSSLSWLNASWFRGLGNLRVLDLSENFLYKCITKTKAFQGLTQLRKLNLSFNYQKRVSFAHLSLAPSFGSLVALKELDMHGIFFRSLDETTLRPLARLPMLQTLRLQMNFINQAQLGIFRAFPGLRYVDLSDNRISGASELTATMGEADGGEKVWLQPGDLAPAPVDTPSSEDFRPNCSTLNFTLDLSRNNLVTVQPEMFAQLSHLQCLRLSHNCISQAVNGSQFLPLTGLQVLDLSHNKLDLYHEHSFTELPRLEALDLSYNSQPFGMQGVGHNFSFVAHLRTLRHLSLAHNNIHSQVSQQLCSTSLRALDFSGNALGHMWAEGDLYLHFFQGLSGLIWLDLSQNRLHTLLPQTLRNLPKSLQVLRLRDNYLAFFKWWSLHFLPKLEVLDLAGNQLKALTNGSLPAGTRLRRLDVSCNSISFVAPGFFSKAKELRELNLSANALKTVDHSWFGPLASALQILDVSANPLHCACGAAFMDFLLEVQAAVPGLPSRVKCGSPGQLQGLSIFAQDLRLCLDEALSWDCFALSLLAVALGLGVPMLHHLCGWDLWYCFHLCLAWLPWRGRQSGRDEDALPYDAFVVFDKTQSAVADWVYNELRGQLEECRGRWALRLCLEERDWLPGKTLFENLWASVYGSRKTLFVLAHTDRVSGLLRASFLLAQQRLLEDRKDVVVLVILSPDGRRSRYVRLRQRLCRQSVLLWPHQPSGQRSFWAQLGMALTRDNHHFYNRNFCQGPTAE
Experimental: (§1) TLR7/8/9 Inhibition Reporter Assays
(§2) HEK-Blue™-cells (Invivogen) overexpressing human TLR7, TLR8 or TLR9 receptors were used for screening inhibitors of these receptors using an inducible SEAP (secreted embryonic alkaline phosphatase) reporter gene under the control of the IFN-β minimal promoter fused to five NF-κB and AP-1-binding sites. Briefly, cells are seeded into Greiner 384 well plates (15000 cells per well for TLR7, 20,000 for TLR8 and 25,000 for TLR9) and then treated with test compounds in DMSO to yield a final dose response concentration range of 0.05 nM-50 μM. After a 30 minute compound pre-treatment at room temperature, the cells are then stimulated with a TLR7 ligand (gardiquimod at a final concentration of 7.5 μM), TLR8 ligand (R848 at a final concentration of 15.9 μM) or TLR9 ligand (ODN2006 at a final concentration of 5 nM) to activate NF-κB and AP-1 which induce the production of SEAP. After a 22 hour incubation at 37° C., 5% CO2, SEAP levels are determined with the addition of HEK-Blue™ Detection reagent (Invivogen), a cell culture medium that allows for detection of SEAP, according to manufacturer's specifications. The percent inhibition is determined as the % reduction in the HEK-Blue signal present in wells treated with agonist plus DMSO alone compared to wells treated with a known inhibitor.

human TLR7 = target: T2, human TLR7 (Homo sapiens, UniProt Q9NYK1); test: TLR7 inhibition reporter assay (HEK-Blue SEAP reporter); assay type: cell-based; conditions: HEK-Blue cells overexpressing human TLR7; gardiquimod 7.5 μM; 22 hour incubation
T2 construct: host or cells: HEK-Blue cells
T2 sequence (Q9NYK1 27-1049): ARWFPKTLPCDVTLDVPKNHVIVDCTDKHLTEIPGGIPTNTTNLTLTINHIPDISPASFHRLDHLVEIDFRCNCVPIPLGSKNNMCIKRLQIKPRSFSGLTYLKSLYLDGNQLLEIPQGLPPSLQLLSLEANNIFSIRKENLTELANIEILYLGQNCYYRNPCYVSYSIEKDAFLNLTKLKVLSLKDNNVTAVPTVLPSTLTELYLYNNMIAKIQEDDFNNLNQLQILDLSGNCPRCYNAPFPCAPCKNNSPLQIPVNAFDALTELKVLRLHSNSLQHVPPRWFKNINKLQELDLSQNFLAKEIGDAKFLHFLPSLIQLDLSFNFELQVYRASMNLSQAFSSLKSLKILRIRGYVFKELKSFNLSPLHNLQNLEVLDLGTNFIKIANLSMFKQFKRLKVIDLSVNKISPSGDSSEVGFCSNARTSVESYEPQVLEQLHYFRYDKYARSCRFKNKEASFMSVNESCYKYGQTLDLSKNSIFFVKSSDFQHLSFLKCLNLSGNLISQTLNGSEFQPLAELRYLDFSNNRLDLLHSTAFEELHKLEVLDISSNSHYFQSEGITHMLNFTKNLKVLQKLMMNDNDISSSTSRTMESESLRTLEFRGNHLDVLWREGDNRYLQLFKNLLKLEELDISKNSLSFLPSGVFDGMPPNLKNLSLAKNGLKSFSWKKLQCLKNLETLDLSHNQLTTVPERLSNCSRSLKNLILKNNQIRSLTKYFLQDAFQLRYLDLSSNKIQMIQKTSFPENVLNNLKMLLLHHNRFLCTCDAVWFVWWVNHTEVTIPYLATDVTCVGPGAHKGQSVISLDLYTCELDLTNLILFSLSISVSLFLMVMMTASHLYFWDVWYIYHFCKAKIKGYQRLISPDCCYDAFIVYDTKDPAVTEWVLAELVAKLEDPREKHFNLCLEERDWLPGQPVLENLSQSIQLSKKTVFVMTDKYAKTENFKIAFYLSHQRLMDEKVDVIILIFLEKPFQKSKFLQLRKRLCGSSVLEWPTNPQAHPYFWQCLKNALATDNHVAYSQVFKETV
Experimental: as §1, §2

SMILES | pIC50 (human TLR9) | pIC50 (human TLR7)
COc1ccc(-c2[nH]c3ccc(NC4CCC(N5CCN(CCCN6CCCC6)CC5)CC4)cc3c2C(C)C)cc1OC (stereo not drawn) [Example 67, 2-(3,4-dimethoxyphenyl)-3-isopropyl-N-(4-(4-(3-(pyrrolidin-1-yl)propyl)piperazin-1-yl)cyclohexyl)-1H-indol-5-amine] | 6.23 | 6.49
CCc1c(-c2ccc(OC)c(OC)c2)[nH]c2ccc(N3CCCN(C4CCN(C)CC4)CC3)cc12 [Example 179, 2-(3,4-dimethoxyphenyl)-3-ethyl-5-(4-(1-methylpiperidin-4-yl)-1,4-diazepan-1-yl)-1H-indole] | 5.96 | 6.08
COc1ccc(-c2[nH]c3ccc(NC4CCC(N5CCN(C(C)=O)CC5)CC4)cc3c2C(C)C)cc1OC (single isomer, unassigned) [Example 45, 1-(4-(4-((2-(3,4-dimethoxyphenyl)-3-isopropyl-1H-indol-5-yl)amino)cyclohexyl)piperazin-1-yl)ethan-1-one] | 5.90 | 6.46
COc1ccc(-c2[nH]c3ccc(NC4CCC(N5CCN(Cc6ccc(C)cc6)CC5)CC4)cc3c2C(C)C)cc1OC (stereo not drawn) [Example 65, 2-(3,4-dimethoxyphenyl)-3-isopropyl-N-(4-(4-(4-methylbenzyl)piperazin-1-yl)cyclohexyl)-1H-indol-5-amine] | 6.23 | 5.93
CCN1CCN(C2CCC(Nc3ccc4[nH]c(-c5ccc(OC)c(OC)c5)c(C(C)C)c4c3)CC2)CC1 (stereo not drawn) [Example 38, 2-(3,4-dimethoxyphenyl)-N-(4-(4-ethylpiperazin-1-yl)cyclohexyl)-3-isopropyl-1H-indol-5-amine] | 6.15 | 6.35
CCN1CCN(C2CCC(Nc3ccc4[nH]c(-c5ccc(OC)c(OC)c5)c(C(C)C)c4c3)CC2)CC1 (stereo not drawn) [Example 39, 2-(3,4-dimethoxyphenyl)-N-(4-(4-ethylpiperazin-1-yl)cyclohexyl)-3-isopropyl-1H-indol-5-amine] | 5.91 | 6.62
COc1ccc(-c2[nH]c3ccc(NC4CCC(NCCN(C)C)CC4)cc3c2C(C)C)cc1OC (stereo not drawn) [Example 33, N1-(2-(3,4-dimethoxyphenyl)-3-isopropyl-1H-indol-5-yl)-N4-(2-(dimethylamino)ethyl)cyclohexane-1,4-diamine] | 6.19 | 6.87
COc1ccc(-c2[nH]c3ccc(N4CCC(N5CCN(C(C)=O)CC5)CC4)cc3c2C(C)C)cc1OC [Example 82, 1-(4-(1-(2-(3,4-dimethoxyphenyl)-3-isopropyl-1H-indol-5-yl)piperidin-4-yl)piperazin-1-yl)ethan-1-one] | 5.18 | 6.94
COc1ccc(-c2[nH]c3ccc(NC4CCC(NCCCN(C)C)CC4)cc3c2C(C)C)cc1OC (stereo not drawn) [Example 36, N1-(2-(3,4-dimethoxyphenyl)-3-isopropyl-1H-indol-5-yl)-N4-(3-(dimethylamino)propyl) cyclohexane-1,4-diamine] | 6.23 | 6.65
COc1ccc(-c2[nH]c3ccc(NC4CCC(N5CCN(C6CCCC6)CC5)CC4)cc3c2C(C)C)cc1OC (stereo not drawn) [Example 58, N-(4-(4-cyclopentylpiperazin-1-yl)cyclohexyl)-2-(3,4-dimethoxyphenyl)-3-isopropyl-1H-indol-5-amine] | 5.97 | 6.45
COc1ccc(-c2[nH]c3ccc(N4CCC(N5CCN(CCN6CCCC6)CC5)CC4)cc3c2C(C)C)cc1OC [Example 100, 2-(3,4-dimethoxyphenyl)-3-isopropyl-5-(4-(4-(2-(pyrrolidin-1-yl)ethyl)piperazin-1-yl)piperidin-1-yl)-1H-indole] | 6.00 | 6.99
CCc1c(-c2ccc(OC)c(OC)c2)[nH]c2ccc(N3CCCN(C4CCN(C(C)C)CC4)CC3)cc12 [Example 180, 2-(3,4-dimethoxyphenyl)-3-ethyl-5-(4-(1-isopropylpiperidin-4-yl)-1,4-diazepan-1-yl)-1H-indole] | 6.19 | 6.27
Cc1c(-c2ccnc3[nH]ccc23)[nH]c2ccc(N3CCC4(CCN(Cc5cccn5C)CC4)CC3)cc12 [Example 189, 3-((1-methyl-1H-pyrrol-2-yl)methyl)-9-(3-methyl-2-(1H-pyrrolo[2,3-b]pyridin-4-yl)-1H-indol-5-yl)-3,9-diazaspiro[5.5]undecane] | 6.36 | 4.79
COc1ccc(-c2[nH]c3ccc(NC4CCC(N5CCN(Cc6ccc(C)cc6)CC5)CC4)cc3c2C(C)C)cc1OC (stereo not drawn) [Example 66, 2-(3,4-dimethoxyphenyl)-3-isopropyl-N-(4-(4-(4-methylbenzyl)piperazin-1-yl)cyclohexyl)-1H-indol-5-amine] | 6.23 | 6.16
CCc1c(-c2ccc(OC)c(OC)c2)[nH]c2ccc(N3CCC(OC4CCN(C5CC(C)(C)NC(C)(C)C5)CC4)CC3)cc12 [Example 193, 2-(3,4-dimethoxyphenyl)-3-ethyl-5-(4-((2′,2′,6′,6′-tetramethyl-[1,4′-bipiperidin]-4-yl)oxy)piperidin-1-yl)-1H-indole] | 6.26 | 7.09
COc1ccc(-c2[nH]c3ccc(NC4CCC(N5CCN(C(C)(C)C)CC5)CC4)cc3c2C(C)C)cc1OC (stereo not drawn) [Example 49, N-(4-(4-(tert-butyl)piperazin-1-yl)cyclohexyl)-2-(3,4-dimethoxyphenyl)-3-isopropyl-1H-indol-5-amine] | 6.29 | 6.27
CCc1c(-c2ccc(OC)c(OC)c2)[nH]c2ccc(N3CCC(OC4CCNCC4)CC3)cc12 [Example 132, 2-(3,4-dimethoxyphenyl)-3-ethyl-5-(4-(piperidin-4-yloxy)piperidin-1-yl)-1H-indole] | 5.98 | 6.60
COc1ccc(-c2[nH]c3ccc(N4CCC(N5CCCN(C)CC5)CC4)cc3c2C(C)C)cc1OC [Example 123, 2-(3,4-dimethoxyphenyl)-3-isopropyl-5-(4-(4-methyl-1,4-diazepan-1-yl)piperidin-1-yl)-1H-indole] | 5.77 | 6.55
